US20120178147A1, “MICROBIAL CULTURES AND METHODS FOR ANAEROBIC BIOREMEDIATION” (priority 2009, published 2012)
Several values for one entry are separate records, joined by “and”; a condition that tells them apart may be missing. Identical values can stand only once. Entries after “also recorded” stand apart in the source; their conditions may differ.

Test system: BDI cultures
Assay: TCC and TCS exposure: TCE reductive dechlorination by Bio-Dechlor INOCULUM
Assay type: cell-based
Settings: for TCE completely dechlorinated to ethene in BDI / TCE transformed to VC in BDI: 1.5 μM TCC or 35 μM TCS, by day 27
Method: Cultures. Two cultures were used in this study: 1) Bio-Dechlor INOCULUM, which was obtained from Dr. Frank Loffler's laboratory at Georgia Tech; 2) DehaloR̂2 culture, developed from a sediment microcosm from the Chesapeake Bay “sediment core-D” with three-times continuous transfers described in Example 1.
TCC and TCS Exposure. For the TCC and TCS test, 1 ml ATCC mixed vitamin solution (Catalog No. MD-VS), 0.25 ml 20 mg/L vitamin B12 solution and 1 ml 500 mM lactate solution were filtered with a 0.2 μm sterile filter and added to 92.5 ml sterile anaerobic media in 160 ml serum bottles, and then 5 ml of culture was transferred into this fresh media. Lactate served as electron donor and carbon source. Fifty μl TCE stock solutions ([…] in methanol) were injected into the media with 500-μl Hamilton air-tight syringe (Reno, Nev.), and the final TCE concentration was 35 μmol per serum bottle. Ten μl TCC or TCS stock solutions in methanol or pure methanol was injected with 10 μl Hamilton air-tight syringe (Reno, Nev.) into the serum bottle. Three concentration levels of TCC or TCS stock solutions were made and listed in Table 8 to make the three final concentration levels of TCC or TCS. The middle concentration level of TCC and TCS in cultures was set according to the solubility of TCC and TCS at 20° C. The highest concentration of TCC and TCS is 10 times the solubility of TCC and TCS at 20° C., and the lowest concentration of TCC and TCS is 10% the solubility of TCC and TCS at 20° C.
The total aqueous volume in 160-ml serum bottle was 100 ml. Four BDI and four DehaloR̂2 cultures were generated for each concentration of TCC or TCS, and three of them were used for TCE dechlorination analysis and the other one was used for DNA extractions and molecular analysis. The error bars in the figures are the standard deviations for three independent cultures under the same conditions.
All cultures were stored in the dark and incubated at 30° C.
Analytical Methods. The concentrations of TCE and their reductive-dechlorinating byproducts, 1,1-DCE, cis-DCE, trans-DCE, VC, and ethene were quantified by gas chromatography with a flame ionization detector (GC-FID).
200 μl headspace gas samples were withdrawn from 160 ml serum bottle with 500 μl gas-tight syringes (Hamilton Company, Reno, Nev.) and analyzed by a Shimadzu GC-2010 (Columbia, Md.) with an Rt™-QSPLOT capillary column (30 m×0.32 mm×10 μm, Restek, Bellefonte, Pa.) and a flame ionization detector (FID). The initial oven temperature was 110° C. and was held constant for 5 min. Then the temperature was raised with a gradient of 10° C./min to 150° C., a second gradient at 20° C./min to 200° C., and a third gradient of 5° C./min to 220° C. At the end of this gradient, the oven temperature was held constant at 220° C. for 5 min. The temperature of FID and injector were 240° C. Ultra high purity helium was the carrier gas for the GC. Ultra high purity hydrogen and zero grade air were used for the FID.
Calibration curves for chlorinated compounds were determined based on the known mass of PCE, TCE, 1,1-DCE, cis-DCE and trans-DCE added to 160 ml serum bottles containing 100 ml of distilled-deionized water and equilibrated at 25° C. overnight. The contents were then analyzed using the Shimadzu GC-FID. Different volumes of 100 ppm and 1000 ppm VC and ethene gas were injected directly into GC using the 500 μl airtight syringe to make their calibration curves. The aqueous concentrations of PCE, TCE and their reaction products were calculated by using reported Henry's constants on the EPA website (Washington and Weaver, 2006)

[1] = highest level: 1.5 μM TCC or 35 μM TCS
[2] = lowest level: 0.015 μM TCC or 0.35 μM TCS
[3] = middle level: 0.15 μM TCC or 3.5 μM TCS

Oc1cc(Cl)ccc1Oc1ccc(Cl)cc1Cl [TCS, 5-chloro-2-[2,4-dichloro-phenoxy]-phenol]
TCE completely dechlorinated to ethene in BDI: no ethene was produced | TCE transformed to VC in BDI: 7% | VC produced in BDI (35 μM TCS): 3.6 µmol | TCE not dechlorinated in BDI (35 μM TCS, 27-day experiment): approximately 9% | TCE transformed to cis-DCE in BDI (35 μM TCS, within 27 days): 84% | Maximum formation rate VC in BDI [1]: 1.21 μmol vial^−1 day^−1 | Maximum formation rate cis-DCE in BDI [1]: 6.41 μmol vial^−1 day^−1 | Maximum utilization rate TCE in BDI [1]: 8.75 μmol vial^−1 day^−1 | Maximum utilization rate cis-DCE in BDI [1]: 0.11 μmol vial^−1 day^−1 | effect on TCE reductive dechlorination in BDI cultures [1]: significantly inhibited TCE reductive dechlorination | Maximum formation rate Ethene in BDI [2]: 2.61 μmol vial^−1 day^−1 | Maximum formation rate VC in BDI [2]: 1.14 μmol vial^−1 day^−1 | Maximum formation rate cis-DCE in BDI [2]: 6.69 μmol vial^−1 day^−1 | Maximum utilization rate TCE in BDI [2]: 9.58 μmol vial^−1 day^−1 | Maximum utilization rate VC in BDI [2]: 1.14 μmol vial^−1 day^−1 | Maximum utilization rate cis-DCE in BDI [2]: 2.72 μmol vial^−1 day^−1 | effect on TCE reductive dechlorination in BDI cultures [2]: had no influence on TCE reductive dechlorination; also recorded: did not show any obvious effect | Maximum formation rate Ethene in BDI [3]: 3.95 μmol vial^−1 day^−1 | Maximum formation rate VC in BDI [3]: 1.54 μmol vial^−1 day^−1 | Maximum formation rate cis-DCE in BDI [3]: 7.24 μmol vial^−1 day^−1 | Maximum utilization rate TCE in BDI [3]: 9.36 μmol vial^−1 day^−1 | Maximum utilization rate VC in BDI [3]: 0.62 μmol vial^−1 day^−1 | Maximum utilization rate cis-DCE in BDI [3]: 2.39 μmol vial^−1 day^−1 and 2.4 μmol vial^−1 day^−1 | effect on TCE reductive dechlorination in BDI cultures [3]: did not show any obvious effect

O=C(Nc1ccc(Cl)cc1)Nc1ccc(Cl)c(Cl)c1 [TCC, 3-(4-chlorophenyl)-1-(3,4-dichlorphenyl) urea]
TCE completely dechlorinated to ethene in BDI: 10% | TCE transformed to VC in BDI: 90% | Maximum formation rate Ethene in BDI (highest level: 1.5 μM TCC): 0.19 μmol vial^−1 day^−1 | Maximum formation rate VC in BDI [1]: 1.65 μmol vial^−1 day^−1 | Maximum formation rate cis-DCE in BDI [1]: 3.94 μmol vial^−1 day^−1 | Maximum utilization rate TCE in BDI [1]: 4.22 μmol vial^−1 day^−1 | Maximum utilization rate cis-DCE in BDI [1]: 1.29 μmol vial^−1 day^−1 | effect on TCE reductive dechlorination in BDI cultures [1]: significantly inhibited TCE reductive dechlorination | Maximum formation rate Ethene in BDI [2]: 2.32 μmol vial^−1 day^−1 | Maximum formation rate VC in BDI [2]: 1.11 μmol vial^−1 day^−1 | Maximum formation rate cis-DCE in BDI [2]: 7.98 μmol vial^−1 day^−1 | Maximum utilization rate TCE in BDI [2]: 9.23 μmol vial^−1 day^−1 | Maximum utilization rate VC in BDI [2]: 1.35 μmol vial^−1 day^−1 | Maximum utilization rate cis-DCE in BDI [2]: 2.99 μmol vial^−1 day^−1 | effect on TCE reductive dechlorination in BDI cultures [2]: had no influence on TCE reductive dechlorination; also recorded: did not show any obvious effect | Maximum formation rate Ethene in BDI [3]: 3.3 μmol vial^−1 day^−1 | Maximum formation rate VC in BDI [3]: 1.38 μmol vial^−1 day^−1 | Maximum formation rate cis-DCE in BDI [3]: 7.04 μmol vial^−1 day^−1 | Maximum utilization rate TCE in BDI [3]: 7.47 μmol vial^−1 day^−1 | Maximum utilization rate VC in BDI [3]: 0.33 μmol vial^−1 day^−1 | Maximum utilization rate cis-DCE in BDI [3]: 2.6 μmol vial^−1 day^−1 | effect on TCE reductive dechlorination in BDI cultures [3]: did not show any obvious effect
